Results: patent US20250243208A1, “BICYCLIC HETEROCYCLES AS MRGPRX2 ANTAGONISTS” (Incyte Corporation, priority 2024, published 2025)

Tests used:
Format in all cases: cell-based
[1] = target: T1, MRGPRX2 (Homo sapiens, UniProt Q96LB1); experiment: MRGPRX2 β-Arrestin recruitment assay (PathHunter CHO-K1); design: host or cells: PathHunter CHO-K1; details: PathHunter CHO-K1 cells, agonist Cortistatin 14 0.25 μM
T1 sequence (Q96LB1 1-330): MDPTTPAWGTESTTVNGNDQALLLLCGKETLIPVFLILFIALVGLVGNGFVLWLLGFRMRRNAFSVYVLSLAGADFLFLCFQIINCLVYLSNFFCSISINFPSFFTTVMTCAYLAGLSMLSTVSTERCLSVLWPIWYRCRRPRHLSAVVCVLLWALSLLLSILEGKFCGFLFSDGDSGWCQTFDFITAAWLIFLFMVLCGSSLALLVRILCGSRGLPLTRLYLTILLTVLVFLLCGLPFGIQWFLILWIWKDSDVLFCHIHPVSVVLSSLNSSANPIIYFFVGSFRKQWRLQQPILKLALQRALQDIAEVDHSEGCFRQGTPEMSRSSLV
Excerpt: Example C: MRGPRX2 β-Arrestin Assay
This assay measures compound inhibition of β-Arrestin recruitment, which is part of the G protein-independent pathway that results from the ligand-activated GPCR phosphorylation by specific GPCR kinases. The PathHunter CHO-K1 MRPGRX2 B-Arrestin Cell line stably expressing ProLink tagged MRGPRX2 and Enzyme Acceptor Tagged B-Arrestin was purchased from Eurofins DiscoverX, (Fremont, CA).
The cells were maintained in culture medium from the Europhins DiscoverX Cell Culture Kit-107 which includes FBS, hygromycin B and G418. For the assay, the cells were harvested and were resuspended with Cell Plating Reagent 2 (Eurofins DiscoverX). Cells were added 10000 cells in 25 μL/well to a 384-well black cell culture plate (Greiner VWR, Radnor, PA) which contained 125 nL/well of compound at a selected serially diluted concentration range or DMSO. The plate was incubated at 37° C. with 5% CO2 for 1 h. 2 μL/well of agonist Cortistatin 14 was diluted in Protein Dilution Buffer, (Eurofins DiscoverX) for a final concentration of 0.25 μM, was added and the plate was incubated at 37° C. with 5% CO2 for 90 min. 14 μL/well of Detection Reagent Mix (PathHunter Detection Kit, Eurofins DiscoverX) was added to the plates and further incubated for 1 h in the dark. Plates were read on the PHERAstar microplate reader (BMG Labtech Cary, NC) measuring luminescence 0.1 to 1 s per well. Data was normalized using DMSO only wells and wells with high concentration of reference antagonist as controls. Compound IC50 curves were globally fitted with 3- or 4-parameter Hill equation in a Genedata Screener (Genedata Basel, Switzerland).

[2] = target: T1, MRGPRX2; experiment: MRGPRX2 FLIPR calcium mobilization assay; design: host or cells: CHO-K1; details: CHO-K1 cells, agonist Cortistatin-14 at EC80, Ca2+ release
Protocol: Example A. MRGPRX2 FLIPR Calcium Mobilization Assay
Chinese hamster ovary (CHO-K1) cells stably expressing human MRGPRX2 were purchased from Genescript (Piscataway, NJ). The cells were maintained in culture medium (Ham's F-12K) containing 10% (v/v) FBS, 200 μg/mL Zeocin, 100 units/mL penicillin G and 100 μg/mL streptomycin (Life Technologies, Carlsbad, CA). For the assay, the cells were harvested and resuspended with culture medium without Zeocin before plating at 8000 cells per well in 20 μL in 384-well black clear bottom cell culture plates (VWR, Radnor, PA). […] Ca^2+ release was measured with FLIPR Penta with 10 s basal fluorescence measurement, then 12.5 μL of 5× agonist Cortistatin-14 (Tocris, Minneapolis, MN) at final concentration corresponding to the EC80 were added followed with continued fluorescence signal monitoring for an additional 110 s. The base line adjusted (median of first 10s base line) max value of the Relative Fluorescence Unit (RFU) was plotted against compound concentrations. […]

[3] = target: T1, MRGPRX2; experiment: MRGPRX2 IP1 HTRF assay; design: host or cells: CHO-K1; details: CHO-K1 cells, agonist Cortistatin 14 1 μM, IP1 accumulation
Excerpt: Example B: MRGPRX2 IP1 HTRF Assay
This assay measures compound inhibition of myo-Inositol 1 phosphate (IP1) accumulation in CHO-K1 cells. Chinese hamster ovary (CHO-K1) cells stably expressing human MRGPRX2 were purchased from GenScript (Piscataway, NJ).
For the HTRF IP1 determination, an IP-One GqKit (Perkin Elmer Cisbio, Waltham, MA), which includes all reagents and buffers in this protocol, was used. The cells were maintained in culture medium (Ham's F-12K) containing 10% (v/v) FBS, and 200 μg/mL Zeocin. For the assay, the cells were harvested and resuspended in culture medium with 2% FBS and without Zeocin, then were passed through a 40 μm filter. Cells were added at 20000 cells in a 5 μL/well to a 384-well white small volume cell culture plate (Greiner VWR, Radnor, PA) which contained 50 nL/well of test compound serially diluted at a selected concentration range in DMSO. 5 μL/well of prepared 2× Stimulation Buffer2 was then added to plates and was incubated at 37° C. with 5% CO2 for 1 h. 5 μL/well of agonist Cortistatin 14 (Bio-TechneR&D Systems, Minneapolis, MN) in 1× Stimulation Buffer 2, for a 1 μM final concentration, was then added to plates and incubated at 37° C. with 5% CO2 for 1 h. 6 μL/well of 1:20 diluted Detection Reagent Mix (d2 and Cryptate) was added to the plates and incubated for 1 h in the dark. Plates were read on the PHERAstar microplate reader (BMG Labtech Cary, NC) to determine the HTRF ratio of the acceptor and donor emission signals. The IP1 concentrations were calculated from a standard curve following the IP-One GQ kit instructions. Wells with DMSO only and wells with high concentration of reference antagonist were used as controls for normalization. Compound IC50 curves were globally fitted with 3- or 4-parameter Hill equation in a Genedata Screener (Genedata Basel, Switzerland).

Row | Structure (SMILES) | IC50 [1] [nM] | IC50 [2] [nM] | IC50 [3] [nM]
1 | CC(CNc1cc(C(F)(F)F)nc2cc(C(F)(F)F)nn12)(c1ccc(F)cc1)C1CNC1 (racemic) [Example 13, N-(2-(Azetidin-3-yl)-2-(4-fluorophenyl)propyl)-2,5-bis(trifluoromethyl)pyrazolo[1,5-a]pyrimidin-7-amine] | 0.1 to 100 | 0.1 to 100 | –
2 | CC(CNc1cc(C(F)(F)F)nc2cc(C(F)(F)F)nn12)(c1ccc(F)cc1)C1CN(/C(N)=N/C#N)C1 (racemic) [Example 14, 3-(1-((2,5-Bis(trifluoromethyl)pyrazolo[1,5-a]pyrimidin-7-yl)amino)-2-(4-fluorophenyl)propan-2-yl)-N′-cyanoazetidine-1-carboximidamide] | 0.1 to 100 | 0.1 to 100 | 0.1 to 100
